Laboratory results from patent US20180271930A1, “METHOD FOR RAISING POULTRY” (priority 2015, published 2018).

Assays:
[1] = system: myogenin; assay: Examination 4: myogenin gene expression in superficial pectoral muscle at 3 days old; assay type: in vivo, broiler chicks; details: 0.01% by mass additive in feed for 3 days, FIG. 3A, n=4
Procedure: FIGS. 3A to 3C illustrate graphs showing the expression of genes related to skeletal muscle cell differentiation in superficial pectoral muscles upon administration of each feed composition in Examination 4 (n=4). […] A relative value of the expression level of each factor is expressed as an average±standard deviation of values obtained by dividing the expression levels of each factor by the expression level of RPS9. Newly hatched broiler chicks (Ross Breeders Ltd.) were tested. A control group (=additive-free group), a GSSG addition group (0.01% by mass), and a GSH addition group (0.01% by mass) each consisting of 5 males and 5 females were set and fed with a feed composition for 3 days. […] At this timing, 2 males and 2 females in each group were slaughtered to collect blood and skeletal muscles. The gene expression levels of the MyoD family (myogenin, myostatin, and Pax7) were observed. […] Statistics were analyzed using a mixed model in consideration of a gender difference and an interaction between males and females. A method for determining gene expressions of the above factors in skeletal muscles is described above. An ammonium salt was used as oxidized glutathione (GSSG). The GSSG contained 95.6% by mass of oxidized glutathione, and the content of reduced glutathione mixed therein was 0.1% by mass or less. […]

[2] = Examination 4: body weight of chicks raised until 35 days old after feeding GSSG or GSH for 3 days; assay type: in vivo, broiler chicks; details: 0.01% by mass additive in feed for 3 days; n = 6, average ± standard deviation
Procedure: Newly hatched broiler chicks (Ross Breeders Ltd.) were tested. A control group (=additive-free group), a GSSG addition group (0.01% by mass), and a GSH addition group (0.01% by mass) each consisting of 5 males and 5 females were set and fed with a feed composition for 3 days. […] At this timing, 2 males and 2 females in each group were slaughtered to collect blood and skeletal muscles. The gene expression levels of the MyoD family (myogenin, myostatin, and Pax7) were observed. […] Statistics were analyzed using a mixed model in consideration of a gender difference and an interaction between males and females. An ammonium salt was used as oxidized glutathione (GSSG). The GSSG contained 95.6% by mass of oxidized glutathione, and the content of reduced glutathione mixed therein was 0.1% by mass or less. […] A feed composition, for which the amount of oxidized glutathione (GSSG) added was set to 0.01% by mass, is described in Examination 1. A feed composition, for which the amount of reduced glutathione (GSH) added was set to 0.01% by mass, was prepared by adding 0.01% by mass of GSH, instead of 0.01% by mass of GSSG, to the GSSG-containing feed composition described in detail in Examination 1.

**Q.** For `N[C@@H](CCC(=O)N[C@@H](CS)C(=O)NCC(=O)O)C(=O)O` [GSH, N—(N-γ-L-glutamyl-L-cysteinyl)glycine, reference compound], which “myogenin expression level vs control group” value [1] is on record?
**A.** smaller than the decrease

**Q.** And the “Weight, 14 days old” value [2]?
**A.** 512.7 ± 79.8 g

**Q.** And the “Weight, 35 days old” value [2]?
**A.** 2052 ± 267 g
